In patent US9119881B2, “Method of synergistically enhancing the therapeutic efficacy and safety of medication through a combination therapy” (priority 2010, dated 2015):
Marks after values point to notes of the source that are not given here.

Tests used:
[1] = system: insulin-secreting pancreatic beta cells; assay: Pancreatic beta cell viability / apoptosis after streptozotocin challenge; assay type: cell-based
Source text: Data are presented as mean±standard error.

[2] = system: stromal vascular cells (SVCs); assay: Gene expression in LPS-treated stromal vascular cells; assay type: cell-based, mice; details: LPS 100 ng/mL, 6 h, ABA 10 μM, rosiglitazone 1 μM
Method: SVCs from abdominal white adipose tissue were isolated from db/db mice fed high-fat control diet for 60 days. Cells were seeded into 24-well plates at 1×10^6 cells/well and treated with LPS (100 ng/mL) with and without ABA (10 μM), Ros (1 μM), or ABA and Ros (ABA/Ros). The relative expressions of genes peroxisome proliferator activated receptor γ (PPAR γ) (A), CCL17 (B), monocyte chemoattractant protein 1 (MCP-1) (C), and mannose receptor (D) were calculated as a ratio to the housekeeping gene β-actin. Data are represented as mean±standard error.
Isolated cells from the stromal vascular fraction (SVF) of WAT from high-fat fed db/db mice were enumerated and seeded into 24-well plates at […] cells/well. […]
Total RNA was isolated from adipose tissue using the RNeasy Lipid Mini Kit (Qiagen) and from cells using the RNeasy Mini Kit (Qiagen) according to the manufacturer's instructions. […] Each gene amplicon was purified with the MiniElute PCR Purification Kit (Qiagen) and quantitated on an agarose gel by using a DNA mass ladder (Promega). […]
Complementary DNA (cDNA) concentrations for genes of interest were examined by real-time quantitative PCR using an iCycler IQ System and Sybr Green PCR master mix (Applied Biosystems, Foster City, Calif.). […] Results are presented as starting quantity of target cDNA (picograms) per microgram of total RNA.

[3] = system: retinoic acid receptor (RAR); assay: RAR luciferase reporter in transfected 3T3-L1 preadipocytes; assay type: cell-based; details: ABA 10 μM with retinoic acid 10 μM
Method: A pCMX.L-RXR or pCMX.RAR expression plasmid and a luciferase reporter plasmid were purified using Qiagen's Maxi kit (Valencia, Calif.). 3T3-L1 preadipocytes (American Type Culture Collection, Manassas, Va.) were grown in DMEM high glucose medium (Invitrogen, Carlsbad, Calif.) containing 10% fetal bovine serum (FBS). The cells cultured in 25 cm^2 flasks were co-transfected with 0.6 ug plasmid DNA and 1 ng of pRL reporter control plasmid per well using F-2 transfection reagents (Targeting Systems, Santee, Calif.) according to the manufacturer's protocol. After 24 hours, transfected cells were split trypsin and seeded into 96-well white plates at a concentration of 20,000 cells/wells. The transfected cells were then treated with 9-cis retinoic acid (0, 10 μM; Sigma), or retinoic acid (RA, 10 μM; Sigma), with ABA (10 μM; Sigma) Transfected cells were harvested in reporter lysis reagent. Luciferase activity, normalized to pRL activity in the cell extracts was determined by using the dual luciferase reporter assay system (Promega, Madison, Wis.) in a Modulus 96-well plate reader (Turner Biosystems, Sunnyvale, Calif.). Relative luciferase activity (RLA) was calculated as a ratio of the chemiluminescence 10 seconds after the Luciferase Assay Reagent II (Promega) was added over the chemiluminescence 10 seconds after the Stop&Glo Reagent (Promega).

[4] = mice fed ABA at doses ranging from 100 to 800 mg/kg of diet [44]; cited from earlier work
[5] = Dietary ABA and rosiglitazone in obese db/db mice: body and organ weights; assay type: in vivo; details: db/db mice, ABA 100 mg/kg diet, day 60
Method: Twelve-fifteen week-old BKS.Cg-+Lepr^db/+Lepr^db/OlaHsd (db/db) mice were housed at the animal facilities at Virginia Polytechnic Institute and State University in a room maintained at 75° F., with a 12:12 h light-dark cycle starting from 6:00 AM. All experimental procedures were approved by the Institutional Animal Care and Use Committee of Virginia Polytechnic Institute and State University and met or exceeded requirements of the Public Health Service, National Institutes of Health and the Animal Welfare Act. […] Louis, Mo.) for 60 days. Mice were weighed and fasting (12 h) blood glucose levels were taken weekly. Blood glucose levels were assessed with an ACCU-CHEK® Glucometer (Roche, Indianapolis, Ind.). […] On day 60 mice were sacrificed by CO2 narcosis with secondary thoracotomy. Abdominal WAT, inguinal subcutaneous WAT, and liver were then excised and weighed. Abdominal and subcutaneous WAT were then digested and fractionated.

[6] = system: human aorta endothelial cells (HAECs); assay: Intracellular cAMP assessment in HAECs; assay type: cell-based; details: 5 min stimulation, beginning at 0.1 uM ABA
Method: These cells were serum-starved using HBSS buffer for 30 min and then stimulated with various concentrations of abscisic acid (ABA) or Forskolin (forsk, 1 uM) for 5 minutes. After removing supernatant, cells were lysed with 0.1 M HCL to measure nonacetylated cAMP. Results (pmol/ml) from four independent experiments are depicted. Data are represented as mean±standard error.
Confluent human aorta endothelial cells (HAECs) were serum-starved using HBSS buffer for 30 min, then stimulated with various concentration of ABA and Forskolin (1 uM) for 5 min, after removing supernatant, cells were lysed with 0.1 M HCL to measure non-acetylated cAMP using a commercially available kit (Cayman chemical) following the manufacturer's instructions. Results (pmol/mL) were obtained from four independent experiments. For nitric oxide (NO), confluent HAECs were serum-starved for 30 min by using HBSS buffer, then treated with ABA for 15 min. Supernatant was used to measure NO using an fluorescent kit.

## CC1=CC(=O)CC(C)(C)C1(O)/C=C/C(C)=C\C(=O)O (racemic) [ABA, abscisic acid]
[1]; ABA 1 and 10 micromolar, streptozotocin (STZ) 2 mM for 24 hours
  viability of insulin-secreting pancreatic beta cells: increases
[1]; FIG. 4
  pancreatic beta cell apoptosis caused by streptozotocin: diminishes
[2]
  M1 marker CCL17 expression: significantly reduced
[3]
  activity of RAR ligands: synergistically enhances
[4]
  side-effects: no detectable side-effects
[5]; no rosiglitazone
  Ab. WAT % Body Weight: 4.7 ± 0.68^a % Body Weight
  Sc. WAT % Body Weight: 2.8 ± 0.48 % Body Weight
[5]; Ros^hi
  Ab. WAT as percent body weight (in words): significantly and independently reduced
  inguinal SCAT weight (in words): little affect
[6]
  intracellular cAMP concentration: significantly increased
